# According to patent US10821151B2, “Compositions and methods for treating cancer and persistent viral infections” (SUSAVION BIOSCIENCES, INC., priority 2015, dated 2020):
# Positions of bridges follow the written chain, without caps; N, C: chain ends. Chains are numbered I, II in the order given. No end group written: not given here.
# How the values were obtained:
# NKG2D = biological target: T1, NKG2D (Homo sapiens, UniProt P26718); experiment: solid-phase binding assay with Fc-chimeric NKG2D; settings: for inhibition of binding of SVH1C to NKG2D: fetuin 5, 10, 30 μM, sialyllactose 12, 20, 40 μM
# T1 sequence (P26718 78-216 limits assumed): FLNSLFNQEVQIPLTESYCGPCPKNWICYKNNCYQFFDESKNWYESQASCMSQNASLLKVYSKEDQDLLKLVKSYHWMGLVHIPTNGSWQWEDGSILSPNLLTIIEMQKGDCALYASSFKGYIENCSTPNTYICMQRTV
# MTS cell viability assay = assay type: cell-based; settings: human, human PBMCs; 3 days, peptide alone or with diluted anti-HIV antiserum, 1 nM to 1 μM
# Method: (§1) Human PBMCs were incubated 3 days with peptides and then assay plates were stained with the soluble tetrazolium-based dye MTS to determine cell viability. The mitochondrial enzymes of metabolically active cells metabolize MTS to yield a colored formazan product. After an incubation period of 4 to 6 h at 37° C., the plates were read spectrophotometrically. Cells treated with peptide SVH1C alone or with diluted anti-HIV antiserum were 100±2% viable at peptide concentrations of 1 nM to 1 μM. In another assay to determine cytotoxicity, cells were doubly stained with acridine orange and ethidium bromide. In this assay, viable cells fluoresce green while dead cells fluoresce red.
# cells = experiment: acridine orange / ethidium bromide cytotoxicity assay; assay type: cell-based; settings: 1 mM
# Method: as §1
# CLEC9a = CLEC9a (Homo sapiens, UniProt Q6UXN8); experiment: solid-phase binding assay
# Sequence of CLEC9a (Q6UXN8 whole entry): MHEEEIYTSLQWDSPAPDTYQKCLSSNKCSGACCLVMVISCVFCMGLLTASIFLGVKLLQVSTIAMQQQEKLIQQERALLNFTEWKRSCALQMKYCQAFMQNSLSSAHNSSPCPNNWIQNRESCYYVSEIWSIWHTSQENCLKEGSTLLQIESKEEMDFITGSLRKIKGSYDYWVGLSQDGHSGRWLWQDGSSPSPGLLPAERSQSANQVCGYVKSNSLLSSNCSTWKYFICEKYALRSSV
# Method: (§2) The buffer in these assays was PBS containing 0.05% Tween-20. […] The receptors were Fc-chimeras and were assayed in protein A/G-coated microtiter wells. Siglec-1 and CLEC10a contained a C-terminal His tag and were assayed in a separate experiment with Ni-coated wells. SEM was determined from four independent experiments run in duplicate. Inhibition by fetuin is shown by the average of two assays in which the glycoprotein was added at 10 μM (second, black bar) or 30 μM (third, light grey bar) in each receptor group. Binding was measured by a colorimetric assay of peroxidase.
# (§3) The buffer in these assays was PBS containing 0.05% Tween-20. […] The receptors were Fc-chimeras and were assayed in protein A/G-coated microtiter wells. The assay was similar to that described under FIG. 7.
# (§4) Biotinylated peptides were then incubated with the receptors, the wells were stringently washed and the bound peptide was detected by binding of streptavidin conjugated with peroxidase.
# CLEC10a = biological target: T2, CLEC10a (Homo sapiens, UniProt Q8IUN9); experiment: solid-phase binding assay
# T2 sequence (Q8IUN9 1-316): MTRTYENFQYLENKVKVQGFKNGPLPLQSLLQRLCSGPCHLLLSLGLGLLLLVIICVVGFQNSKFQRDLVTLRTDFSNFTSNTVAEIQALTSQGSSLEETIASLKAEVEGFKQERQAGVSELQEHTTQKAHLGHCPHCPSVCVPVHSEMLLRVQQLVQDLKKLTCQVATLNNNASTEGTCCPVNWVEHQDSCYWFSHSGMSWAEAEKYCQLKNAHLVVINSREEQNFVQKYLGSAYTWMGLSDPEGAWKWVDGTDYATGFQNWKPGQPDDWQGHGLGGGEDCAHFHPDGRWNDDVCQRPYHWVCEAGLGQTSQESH
# Method: as §2, §3, §4
# DC-SIGN = biological target: T3, DC-SIGN (Homo sapiens, UniProt Q9NNX6); experiment: solid-phase binding assay
# T3 sequence (Q9NNX6 1-404): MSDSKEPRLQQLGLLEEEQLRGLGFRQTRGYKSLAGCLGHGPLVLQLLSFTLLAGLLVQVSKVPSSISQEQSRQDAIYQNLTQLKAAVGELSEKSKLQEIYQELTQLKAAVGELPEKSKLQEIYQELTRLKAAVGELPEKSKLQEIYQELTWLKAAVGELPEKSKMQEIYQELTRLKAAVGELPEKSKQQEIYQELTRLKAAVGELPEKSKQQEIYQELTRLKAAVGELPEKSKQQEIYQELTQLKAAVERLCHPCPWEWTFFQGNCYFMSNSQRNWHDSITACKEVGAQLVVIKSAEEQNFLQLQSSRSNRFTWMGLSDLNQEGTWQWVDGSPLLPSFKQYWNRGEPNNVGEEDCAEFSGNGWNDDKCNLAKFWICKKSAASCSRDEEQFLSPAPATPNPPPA
# Method: as §2, §3, §4
# langerin = langerin (Homo sapiens, UniProt Q9UJ71); experiment: solid-phase binding assay
# Sequence of langerin (Q9UJ71 whole entry): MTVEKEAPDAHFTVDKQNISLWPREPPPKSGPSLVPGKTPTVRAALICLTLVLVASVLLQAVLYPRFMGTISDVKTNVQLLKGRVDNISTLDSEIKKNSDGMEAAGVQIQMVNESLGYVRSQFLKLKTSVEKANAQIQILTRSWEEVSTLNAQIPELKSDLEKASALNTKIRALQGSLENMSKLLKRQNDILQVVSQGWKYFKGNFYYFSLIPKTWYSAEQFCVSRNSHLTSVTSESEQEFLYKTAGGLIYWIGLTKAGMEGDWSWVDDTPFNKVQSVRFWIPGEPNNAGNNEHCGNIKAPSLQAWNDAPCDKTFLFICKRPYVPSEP
# Method: (§5) The buffer in these assays was PBS containing 0.05% Tween-20. […] The receptors were Fc-chimeras and were assayed in protein A/G-coated microtiter wells.
# as §4
# ASGPR-1 = biological target: T4, ASGPR-1 (Homo sapiens, UniProt P07306); experiment: solid-phase binding assay
# T4 sequence (P07306 1-291): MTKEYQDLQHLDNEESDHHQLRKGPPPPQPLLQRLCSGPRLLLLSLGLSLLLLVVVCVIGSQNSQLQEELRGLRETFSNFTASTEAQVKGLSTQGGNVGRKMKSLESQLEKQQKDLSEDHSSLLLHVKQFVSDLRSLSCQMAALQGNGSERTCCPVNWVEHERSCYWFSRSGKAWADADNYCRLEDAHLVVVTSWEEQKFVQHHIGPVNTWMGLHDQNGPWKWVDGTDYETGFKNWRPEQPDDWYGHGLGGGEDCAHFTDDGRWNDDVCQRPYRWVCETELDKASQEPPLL
# Method: as §5, §4
# dectin-1 = biological target: T5, dectin-1 (Homo sapiens, UniProt Q9BXN2); experiment: solid-phase binding assay
# T5 sequence (Q9BXN2 1-247): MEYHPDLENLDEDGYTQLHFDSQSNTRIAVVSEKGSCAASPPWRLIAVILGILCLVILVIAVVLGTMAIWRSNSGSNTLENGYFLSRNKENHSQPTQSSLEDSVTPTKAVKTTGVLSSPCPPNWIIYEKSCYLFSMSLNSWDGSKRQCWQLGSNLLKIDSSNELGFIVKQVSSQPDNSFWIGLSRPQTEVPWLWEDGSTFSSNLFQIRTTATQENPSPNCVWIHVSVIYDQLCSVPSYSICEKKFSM
# Method: as §5, §4
# Siglec-1 = Siglec-1 (Homo sapiens, UniProt Q9BZZ2); experiment: solid-phase binding assay
# Sequence of Siglec-1 (Q9BZZ2 20-1709): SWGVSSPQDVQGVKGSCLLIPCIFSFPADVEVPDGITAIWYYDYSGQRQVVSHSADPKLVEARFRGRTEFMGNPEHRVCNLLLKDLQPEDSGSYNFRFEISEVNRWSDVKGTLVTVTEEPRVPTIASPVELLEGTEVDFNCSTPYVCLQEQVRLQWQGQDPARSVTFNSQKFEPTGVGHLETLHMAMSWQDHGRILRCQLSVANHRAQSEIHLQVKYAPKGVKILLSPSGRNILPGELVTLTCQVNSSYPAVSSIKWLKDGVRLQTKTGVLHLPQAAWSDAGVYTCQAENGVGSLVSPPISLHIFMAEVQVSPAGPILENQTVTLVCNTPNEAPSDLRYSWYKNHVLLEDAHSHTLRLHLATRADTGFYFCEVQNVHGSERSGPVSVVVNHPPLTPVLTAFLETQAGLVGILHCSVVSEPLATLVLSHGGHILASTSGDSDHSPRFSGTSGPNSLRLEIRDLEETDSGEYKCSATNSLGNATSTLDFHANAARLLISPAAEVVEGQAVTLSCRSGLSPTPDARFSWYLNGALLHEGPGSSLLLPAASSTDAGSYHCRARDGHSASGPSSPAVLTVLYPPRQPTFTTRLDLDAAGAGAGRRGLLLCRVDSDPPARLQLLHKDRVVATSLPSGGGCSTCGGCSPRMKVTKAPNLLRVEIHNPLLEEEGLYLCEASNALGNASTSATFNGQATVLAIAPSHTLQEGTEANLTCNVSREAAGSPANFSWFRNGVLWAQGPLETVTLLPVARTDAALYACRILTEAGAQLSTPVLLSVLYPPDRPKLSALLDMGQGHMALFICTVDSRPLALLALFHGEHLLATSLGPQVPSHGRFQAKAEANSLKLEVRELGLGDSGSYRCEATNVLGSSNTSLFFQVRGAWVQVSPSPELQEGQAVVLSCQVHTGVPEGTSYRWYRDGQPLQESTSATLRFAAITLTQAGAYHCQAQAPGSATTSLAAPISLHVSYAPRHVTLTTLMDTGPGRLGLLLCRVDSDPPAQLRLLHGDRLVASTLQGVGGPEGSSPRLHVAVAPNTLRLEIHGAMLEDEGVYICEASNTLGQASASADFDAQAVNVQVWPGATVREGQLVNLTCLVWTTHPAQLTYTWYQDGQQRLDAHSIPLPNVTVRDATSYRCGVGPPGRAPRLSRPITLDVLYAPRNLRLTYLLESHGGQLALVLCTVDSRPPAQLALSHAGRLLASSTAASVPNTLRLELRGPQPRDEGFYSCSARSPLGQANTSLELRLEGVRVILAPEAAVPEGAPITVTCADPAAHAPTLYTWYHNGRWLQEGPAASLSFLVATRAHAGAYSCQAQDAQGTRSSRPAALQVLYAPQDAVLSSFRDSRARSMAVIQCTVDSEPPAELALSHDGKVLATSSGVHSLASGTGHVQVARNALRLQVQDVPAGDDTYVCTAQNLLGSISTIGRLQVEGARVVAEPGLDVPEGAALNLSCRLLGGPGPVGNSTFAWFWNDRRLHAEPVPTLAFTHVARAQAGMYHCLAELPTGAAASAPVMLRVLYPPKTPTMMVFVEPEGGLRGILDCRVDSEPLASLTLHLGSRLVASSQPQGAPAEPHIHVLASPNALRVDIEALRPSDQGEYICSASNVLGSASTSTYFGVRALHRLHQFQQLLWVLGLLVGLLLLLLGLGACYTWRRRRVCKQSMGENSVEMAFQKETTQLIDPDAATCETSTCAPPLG
# Method: as §5, §4
# ovarian cancer cell line = experiment: mouse model of ovarian cancer, ascites monitored by body weight
# Method: Body weights of individual mice were measured during treatment with 1 or 0.1 nmole/g doses of SV6D (SEQ ID NO:5) injected subcutaneously every other day.
# In a mouse model of ovarian cancer, a cancer cell line was implanted into the peritoneal cavity. The cells form tumors and in time also release malignant cells into the cavity. The activity of SV6D to treat ovarian cancer was tested by alternate-day injections of 1 and 0.1 nanomole per gram of SV6D. Development of ascites was monitored by an increase in body weight of the animals.
# siglecs = experiment: solid-phase binding assay, biotinylated peptide, streptavidin-peroxidase; settings: fetuin added at 10 μM or 30 μM
# Method: The buffer in these assays was PBS containing 0.05% Tween-20. […] The receptors were Fc-chimeras and were assayed in protein A/G-coated microtiter wells. Siglec-1 and CLEC10a contained a C-terminal His tag and were assayed in a separate experiment with Ni-coated wells. SEM was determined from four independent experiments run in duplicate. […] Binding was measured by a colorimetric assay of peroxidase.
substance,measurement,setting,value
"I: NPSHPLSGGGGSKK-NH2 / II: NPSHPLSGGGGSK / III: NPSHPLSGGGGS / IV: NPSHPLSGGGGS (amide I:13-IV:C, I:14-II:C, II:13-III:C) [SVH1C, [NPSHPLSGGGGS]4K3-NH2]",Kd,NKG2D,~1000 nM
same,viability at 72 h,MTS cell viability assay,100 ± 2%
same,cytotoxicity,cells,did not exhibit cytotoxicity
[NQHTPRGGGS]4K3-NH2 [SV6D],binding to CLEC9a,CLEC9a,not
same,binding to CLEC10a,CLEC10a,bound strongly
same,binding to DC-SIGN,DC-SIGN,not
same,binding to langerin,langerin,bound strongly
same,binding to ASGPR-1,ASGPR-1,bound strongly
same,binding to dectin-1,dectin-1,bound strongly
same,binding to Siglec-1,Siglec-1,not
same,progression of ascites,ovarian cancer cell line,effectively inhibited
fetuin,inhibition of binding of SVH1C to NKG2D,NKG2D,inhibited
same,inhibition of binding of SVH1C to siglecs,siglecs,inhibited
sialyllactose,inhibition of binding of SVH1C to NKG2D,NKG2D,inhibited
